Legend:
[1] = biological target: Replicase polyprotein 1ab (Severe acute respiratory syndrome coronavirus 2) (UniProt P0DTD1); test: Inhibition of recombinant SARS-CoV-2 main protease at 1 uM using Dabcyl-KTSAVLQSGFRKM{Glu(Edans)} as substrate preincubated for 10 mins followed by substrate addition and measured at 60 secs interval for 30 mins by fluorogenic assay relative to control; conditions: time 40.0 min
16HBE14o- = test: Cytotoxicity against human 16HBE14o- cells assessed as reduction in cell viability at 100 uM measured after 24 hrs by MTT assay; type: toxicity, cell-based
[2] = biological target: T1, Replicase polyprotein 1ab (Severe acute respiratory syndrome coronavirus 2, UniProt P0DTD1); test: Competitive inhibition of recombinant SARS-CoV-2 main protease using varying levels of Dabcyl-KTSAVLQSGFRKM{Glu(Edans)} as substrate by Lineweaver-Burk plot analysis
[3] = biological target: T1, Replicase polyprotein 1ab; test: Inhibition of recombinant SARS-CoV-2 main protease using Dabcyl-KTSAVLQSGFRKM{Glu(Edans)} as substrate preincubated for 10 mins followed by substrate addition and measured at 60 secs interval for 30 mins by fluorogenic assay

| SMILES | inhibition [1] [%] | Activity (16HBE14o-) | Ki [2] [µM] | IC50 [3] [µM] |
| --- | --- | --- | --- | --- |
| Cc1cccc(C)c1OCC(=O)N[C@@H](Cc1ccccc1)[C@@H](O)C[C@H](Cc1ccccc1)NC(=O)[C@H](C(C)C)N1CCCNC1=O | 33 | – | – | – |
| Cc1nc(C(=O)N2CCOCC2)c(C(=O)Nc2ccc(Cl)cc2)[nH]1 | 38 | Non-toxic | 15 | 4.79 |
| Cc1nc(C(=O)N2CCOCC2)c(C(=O)Nc2cc(Cl)ccc2Cl)[nH]1 | 38 | Non-toxic | – | 8.43 |
| CC(C)c1nc(CN(C)C(=O)N[C@H](C(=O)N[C@@H](Cc2ccccc2)C[C@H](O)[C@H](Cc2ccccc2)NC(=O)OCc2cncs2)C(C)C)cs1 | 24 | – | – | – |
| O=C(Nc1cc(Cl)c(Cl)cc1Cl)c1[nH]cnc1C(=O)N1CCOCC1 | 16 | – | – | – |
| O=c1c2ccccc2[se]n1-c1ccccc1 | 100 | – | – | – |
| O=C(Nc1ccc(Cl)c(Cl)c1)c1[nH]cnc1C(=O)N1CCOCC1 | 33 | Non-toxic | – | 44.6 |
| Cc1nc(C(=O)N2CCOCC2)c(C(=O)Nc2cc(Cl)c(Cl)cc2Cl)[nH]1 | 39 | Non-toxic | – | 13.3 |
| O=C(Nc1ccccc1)c1[nH]cnc1C(=O)N1CCOCC1 | 15 | – | – | – |
| O=C(Nc1cc(Cl)ccc1Cl)c1[nH]cnc1C(=O)N1CCOCC1 | 18 | – | – | – |
| O=C(Nc1ccc(Cl)cc1)c1[nH]cnc1C(=O)N1CCOCC1 | 3 | – | – | – |
| Cc1nc(C(=O)N2CCOCC2)c(C(=O)Nc2ccccc2)[nH]1 | 24 | Non-toxic | – | – |
| Cc1nc(C(=O)N2CCOCC2)c(C(=O)Nc2ccc(Cl)c(Cl)c2)[nH]1 | 33 | – | – | 22.9 |
